Data set [1] can be described thus: Acceleration test (accelerated stability). The data set is classed as physicochemical. To be noted: for Content / Morphology: 40°C±2°C, 75% RH±5% RH, sealed aluminum plastic bag. How it is done: Test method: A sample of the mangiferin-6-O-calcium salt raw material was sealingly packaged with an aluminum plastic composition bag, placed at 40° C.±2° C. and 75% RH±5% RH conditions, pieces of the sample were taken at the time of 0, 3 and 6 months and the morphology and content thereof were tested.

Data set [2] can be described thus: Physicochemical properties: solubility of the mangiferin-6-O-calcium salt. The text has this:
The mangiferin-6-O-calcium salt has the following structural formula: […]

Data set [3] can be described thus: Room temperature long-term stability test. The data set is classed as physicochemical. To be noted: for Content / Morphology: 25°C±2°C, 60% RH±5% RH, sealed aluminum plastic bag. How it is done:
Test method: A sample of the mangiferin-6-O-calcium salt raw material was sealingly packaged with an aluminum plastic composition bag, placed at 25° C.±2° C. and 60% RH±5% RH conditions, pieces of the sample were taken at the time of 0, 3, 6, 9 and 12 months and the morphology and content thereof were tested.

Counter-ions that a name gives are not always drawn.

As to `O=c1c2cc(O)c(O)cc2oc2cc(O)c(C3OC(CO)C(O)C(O)C3O)c(O)c12` (stereo not drawn) [mangiferin-6-O-calcium salt], the Content in data set [1] (batch 140618, 0 month) was determined as 84.5%; in data set [1] (batch 140618, 3 months), 84.5%; in data set [1] (batch 140618, 6 months), 84.2%; in data set [3] (batch 140618, 0 month) it was 84.5%; in data set [3] (batch 140618, 3 months), 84.5%; in data set [3] (batch 140618, 6 months), 84.3%. The Content was found to be 84.6% in data set [3] (batch 140618, 9 months) and 84.2% in data set [3] (batch 140618, 12 months). Besides, the Morphology result in data set [1] (batch 140618, 0 month) is given as “Light yellow-”; in data set [1] (batch 140618, 3 months), “Light yellow-”; in data set [1] (batch 140618, 6 months) it was “Light yellow-”; in data set [3] (batch 140618, 0 month) it was “Light yellow-green”; in data set [3] (batch 140618, 3 months), “Light yellow-green”; in data set [3] (batch 140618, 6 months) it was “Light yellow-”. The Morphology result in data set [3] (batch 140618, 9 months) was “Light yellow-”; in data set [3] (batch 140618, 12 months), “Light yellow-”. Further, the “Stability conclusion, acceleration test” value in data set [1] (acceleration test condition for 6 months) is given as “stable properties”. Also, the “Solubility in diluted hydrochloric acid solution” value in data set [2] (diluted hydrochloric acid solution) was “slightly soluble”. For the same compound, in data set [2] (hot water), the “Solubility in hot water” value is listed as “soluble”. In addition, the Solubility in water result in data set [2] (water) is listed as “slightly soluble”. Further, the “Stability conclusion, room temperature” value in data set [3] (room temperature condition for 12 months) is “stable properties”.

Values taken from patent US10538547B2, “Mangiferin-6-O-calcium salt and preparation process thereof” (CHANGZHOU DEZE MEDICAL SCIENCE CO., LTD, priority 2016, dated 2020).
